# Experimental data: patent US20050276838A1, “Composition and method for viral inhibition” (priority 2003, published 2005)
# Read-outs that look alike come from different tables or passages of the source.
# Experiments:
# [1] = system: Human Rotavirus strain Wa; test: Virus Inhibition Assay: MTT viability of MA-104 cells infected with Rotavirus in the presence of test compound; assay type: cell-based; conditions: for MA-104 Infection with Lactulose (Mean OD): MTT absorbance 570 nm, 3 days, mean ± sd, triplicate; for Fate of MA-104 cells treated with virus and compound (MTT metabolism assay): in the presence of virus, Table 2; for MA-104 Cell Viability After Exposure to Test Compound with Rotavirus, (+) Virus: percent of control without virus or compound added, MTT after three days, five wells, compound concentration not given
# Experimental: (§1) MA-104 cells of epithelial morphology were obtained from American Type Culture Collection and were originally derived from Rhesus monkey embryonic kidney. The cells were cultured at 37° C. in a humidified incubator and in an atmosphere of 5% CO2, in Minimal Essential Medium with Earle's balanced salt solution (2 mM glutamine, 1 mM sodium pyruvate, 0.1 mM non-essential amino acids and 1.5 g/L sodium bicarbonate) supplemented with 10% fetal bovine serum from Hyclone, Logan, Utah. The cells were passaged twice a week at a split ratio of 1:4.
# Human Rotavirus strain Wa was obtained from the American Type Culture Collection. A virus stock was diluted 1:5 in media, aliquoted to 0.2 mL per vial and stored at approximately −80° C. The human Rotavirus strain, Wa (TC adapted) (Catalog No. VR-2018), originally isolated from a diarrheic stool from a human patient (Wyatt et al., Science 207: 189-191, 1980; U.S. Pat. No. 4,341,870), is Serotype 1 (G1) for VP7.
# (§2) MTT Viability Assays were conducted in a Promega CellTiter 96® Non-Radioactive Cell Kit (Cat # G400) obtained from Promega, Madison, Wis. and used according to manufacturer's instructions.
# (§3) Test compounds were prepared by dissolving each compound at 20-μg/mL final concentration in incomplete MA-104 media (Minimal Essential Medium with Earle's balanced salt solution). The compounds were sterilized by filtration through a 0.45-micron filter. The filter-sterilized stock was stored frozen at less than −20° C.
# (§4) Virus Inhibition Assay: Virus strain Wa (1:2 dilution from stock) was activated in the presence of 5 μg/mL trypsin and incubated with 1, 10 or 100 μg/mL test compound in serum-free medium at 37° C. for 30 minutes. The activated virus was then diluted 1:5 in serum-free medium containing test compound at the same concentration (to bring the trypsin concentration to 1 μg/mL), added to MA-104 cells, and serially diluted on microtiter plates (5-fold series). The diluent contained 1 μg/mL trypsin and the indicated amount of test compound. After the virus was adsorbed at 37° C. for 1 hour, the virus innoculum was removed, and the media was replaced with serum-free medium containing 1 μg/mL trypsin and the indicated amount of test compound. Cultures were incubated at 37° C. for 3 days, and then cell viability was assessed with the Promega MTT assay following manufacturer's instructions. Each plate contained a dilution series of virus not treated with test compound and each plate contained cells exposed to test compound without virus. All samples were tested in triplicate. Absorbance at 570 nm was determined on a SpectraMax microplate reader (Molecular Devices) equipped with SoftMax Pro (v 3.1.2) data analysis software. The mean absorbance of triplicate determinations, the standard deviation, and the % CV (standard deviation/mean* 100) were calculated. The Q test was used to remove outliers (Anderson, Robert L. 1987 in Practical Statistics for Analytical Chemists, page 31-33, Table 7, Appendix D). Data were fit to a 4-parameter curve using SoftMax Pro software. The curve equation is y=((A−D)/(1+(x/C)^B))[…] which defines a sigmoid shaped curve; A is the lower asymptote as X approaches zero; D is the upper plateau as X approaches infinity; B is the slope in the linear portion of the curve; and C is the ED50.
# (§5) Test compound and activated Rotavirus were diluted in serum free medium and added to five wells of MA-104 cells. Another 5 wells on the same microtiter plate were exposed to test compound in serum free medium containing trypsin. After three days incubation, cell viability was assessed with the MTT metabolism assay. Data are expressed as percent of control without virus or compound added.
# MA-104 cells = assay type: cell-based, Rhesus monkey
# Experimental: as §1, §2, §3, §4, §5
# [2] = system: Human Rotavirus strain Wa; conditions: previous results referred to in the text; cited from earlier work
molecule,measurement,setting,value
"OC[C@H]1O[C@@H](O[C@@H]2[C@@H](CO)O[C@](O)(CO)[C@H]2O)[C@H](O)[C@@H](O)[C@H]1O [Lactulose, 4-O-β-D-galactopyranosil-D-fructofuranose]",MA-104 Infection with Lactulose (Mean OD),"[1]; Lactulose 1 μg/mL, virus (diln)-1 10",0.072 ± 0.007
same,MA-104 Infection with Lactulose (Mean OD),"[1]; Lactulose 1 μg/mL, virus (diln)-1 50",0.132 ± 0.010
same,MA-104 Infection with Lactulose (Mean OD),"[1]; Lactulose 1 μg/mL, virus (diln)-1 250",0.428 ± 0.092
same,MA-104 Infection with Lactulose (Mean OD),"[1]; Lactulose 1 μg/mL, virus (diln)-1 1250",0.756 ± 0.036
same,MA-104 Infection with Lactulose (Mean OD),"[1]; Lactulose 1 μg/mL, virus (diln)-1 6250",0.743 ± 0.064
same,MA-104 Infection with Lactulose (Mean OD),"[1]; Lactulose 1 μg/mL, virus (diln)-1 31250",0.782 ± 0.049
same,MA-104 Infection with Lactulose (Mean OD),"[1]; Lactulose 1 μg/mL, virus (diln)-1 156250",0.804 ± 0.031
same,MA-104 Infection with Lactulose (Mean OD),"[1]; Lactulose 10 μg/mL, virus (diln)-1 10",0.087 ± 0.002
same,MA-104 Infection with Lactulose (Mean OD),"[1]; Lactulose 10 μg/mL, virus (diln)-1 50",0.315 ± 0.168
same,MA-104 Infection with Lactulose (Mean OD),"[1]; Lactulose 10 μg/mL, virus (diln)-1 250",0.541 ± 0.330
same,MA-104 Infection with Lactulose (Mean OD),"[1]; Lactulose 10 μg/mL, virus (diln)-1 1250",0.869 ± 0.088
same,MA-104 Infection with Lactulose (Mean OD),"[1]; Lactulose 10 μg/mL, virus (diln)-1 6250",0.808 ± 0.085
same,MA-104 Infection with Lactulose (Mean OD),"[1]; Lactulose 10 μg/mL, virus (diln)-1 31250",0.820 ± 0.082
same,MA-104 Infection with Lactulose (Mean OD),"[1]; Lactulose 10 μg/mL, virus (diln)-1 156250",0.844 ± 0.030
same,MA-104 Infection with Lactulose (Mean OD),"[1]; Lactulose 100 μg/mL, virus (diln)-1 10",0.133 ± 0.045
same,MA-104 Infection with Lactulose (Mean OD),"[1]; Lactulose 100 μg/mL, virus (diln)-1 50",0.849 ± 0.061
same,MA-104 Infection with Lactulose (Mean OD),"[1]; Lactulose 100 μg/mL, virus (diln)-1 250",0.906 ± 0.081
same,MA-104 Infection with Lactulose (Mean OD),"[1]; Lactulose 100 μg/mL, virus (diln)-1 1250",0.971 ± 0.060
same,MA-104 Infection with Lactulose (Mean OD),"[1]; Lactulose 100 μg/mL, virus (diln)-1 6250",1.012 ± 0.153
same,MA-104 Infection with Lactulose (Mean OD),"[1]; Lactulose 100 μg/mL, virus (diln)-1 31250",0.951 ± 0.038
same,MA-104 Infection with Lactulose (Mean OD),"[1]; Lactulose 100 μg/mL, virus (diln)-1 156250",0.942 ± 0.040
same,Protection of MA-104 cells from virus killing,"[1]; MA-104 cells infected with Rotavirus, lactulose 1, 10, 100 μg/mL",protected MA-104 cells from virus killing in a dose dependent manner
same,Fate of MA-104 cells treated with virus and compound (MTT metabolism assay),[1],remained viable
same,"MA-104 Cell Viability After Exposure to Test Compound with Rotavirus, (+) Virus",[1],119%
same,"MA-104 Cell Viability After Exposure to Test Compound without Rotavirus, (−) Virus","MA-104 cells; Rhesus monkey, 3 days",134%
same,"MA-104 cells, no virus (Mean OD)","MA-104 cells; Rhesus monkey, 3 days, 1 μg/mL",0.372 ± 0.093
same,"MA-104 cells, no virus (Mean OD)","MA-104 cells; Rhesus monkey, 3 days, 10 μg/mL",0.419 ± 0.070
same,"MA-104 cells, no virus (Mean OD)","MA-104 cells; Rhesus monkey, 3 days, 100 μg/mL",0.612 ± 0.192
Sialyllactose,Fate of MA-104 cells treated with virus and compound (MTT metabolism assay),[1],significant cell kill due to virus infection
same,"MA-104 Cell Viability After Exposure to Test Compound with Rotavirus, (+) Virus",[1],17%
same,"MA-104 Cell Viability After Exposure to Test Compound without Rotavirus, (−) Virus",MA-104 cells,100%
arabinogalactan,Fate of MA-104 cells treated with virus and compound (MTT metabolism assay),[1],significant cell kill due to virus infection
same,"MA-104 Cell Viability After Exposure to Test Compound with Rotavirus, (+) Virus",[1],19%
same,"MA-104 Cell Viability After Exposure to Test Compound without Rotavirus, (−) Virus",MA-104 cells,102%
galactooligosaccharide,"MA-104 Cell Viability After Exposure to Test Compound without Rotavirus, (−) Virus",MA-104 cells,116%
kappa-carageenen [Kappa Carageenen],Fate of MA-104 cells treated with virus and compound (MTT metabolism assay),[1],remained viable
same,"MA-104 Cell Viability After Exposure to Test Compound with Rotavirus, (+) Virus",[1],119%
same,"MA-104 Cell Viability After Exposure to Test Compound without Rotavirus, (−) Virus",MA-104 cells,112%
same,Inhibition of Rotavirus according to previous results / previous data,[2],inhibits Rotavirus infection
